Measurements taken from PMC5622171 (Nature Communications, 2017).

What was measured:
Experiment in all cases: KINOMEscan kinase profiling
Assay type in all cases: binding
EPHA4 = target: T1, EPHA4 (Homo sapiens, UniProt P54764); conditions: read-out: %Inhibition by 10 μM SPA70
T1 construct: purchased DiscoverX (Ambit Biosciences) KINOMEscan
In short: (§1)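 KINOMEscan profiling followed a published protocol. Kinases whose inhibition exceeded a set cut-off were then tested in a dilution series beginning at 30 µM.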

ROCK1 = target: T2, ROCK1 (Homo sapiens, UniProt Q13464); conditions: read-out: %Inhibition by 10 μM SPA70
T2 construct: purchased DiscoverX (Ambit Biosciences) KINOMEscan
In short: as §1

SgK110 = target: T3, SgK110 (Homo sapiens, UniProt P0C264); conditions: read-out: %Inhibition by 10 μM SPA70
T3 construct: purchased DiscoverX (Ambit Biosciences) KINOMEscan
In short: as §1

PIP5K1A = target: T4, PIP5K1A (Homo sapiens, UniProt Q99755); conditions: read-out: %Inhibition by 10 μM SPA70
T4 construct: purchased DiscoverX (Ambit Biosciences) KINOMEscan
In short: as §1

ADCK3 = target: T5, ADCK3 (Homo sapiens, UniProt Q8NI60); conditions: read-out: %Inhibition by 10 μM SPA70
T5 construct: purchased DiscoverX (Ambit Biosciences) KINOMEscan
In short: as §1

[1] = target: T6, JAK2(JH1domain-catalytic) (Homo sapiens, UniProt O60674)
T6 construct: JAK2(JH1domain-catalytic); purchased DiscoverX (Ambit Biosciences) KINOMEscan
In short: as §1

TBK1 = target: T7, TBK1 (Homo sapiens, UniProt Q9UHD2); conditions: read-out: %Inhibition by 10 μM SPA70
T7 construct: purchased DiscoverX (Ambit Biosciences) KINOMEscan
In short: as §1

MET = target: T8, MET (Homo sapiens, UniProt P08581)
T8 construct: purchased DiscoverX (Ambit Biosciences) KINOMEscan
T8 sequence (P08581 25-1390): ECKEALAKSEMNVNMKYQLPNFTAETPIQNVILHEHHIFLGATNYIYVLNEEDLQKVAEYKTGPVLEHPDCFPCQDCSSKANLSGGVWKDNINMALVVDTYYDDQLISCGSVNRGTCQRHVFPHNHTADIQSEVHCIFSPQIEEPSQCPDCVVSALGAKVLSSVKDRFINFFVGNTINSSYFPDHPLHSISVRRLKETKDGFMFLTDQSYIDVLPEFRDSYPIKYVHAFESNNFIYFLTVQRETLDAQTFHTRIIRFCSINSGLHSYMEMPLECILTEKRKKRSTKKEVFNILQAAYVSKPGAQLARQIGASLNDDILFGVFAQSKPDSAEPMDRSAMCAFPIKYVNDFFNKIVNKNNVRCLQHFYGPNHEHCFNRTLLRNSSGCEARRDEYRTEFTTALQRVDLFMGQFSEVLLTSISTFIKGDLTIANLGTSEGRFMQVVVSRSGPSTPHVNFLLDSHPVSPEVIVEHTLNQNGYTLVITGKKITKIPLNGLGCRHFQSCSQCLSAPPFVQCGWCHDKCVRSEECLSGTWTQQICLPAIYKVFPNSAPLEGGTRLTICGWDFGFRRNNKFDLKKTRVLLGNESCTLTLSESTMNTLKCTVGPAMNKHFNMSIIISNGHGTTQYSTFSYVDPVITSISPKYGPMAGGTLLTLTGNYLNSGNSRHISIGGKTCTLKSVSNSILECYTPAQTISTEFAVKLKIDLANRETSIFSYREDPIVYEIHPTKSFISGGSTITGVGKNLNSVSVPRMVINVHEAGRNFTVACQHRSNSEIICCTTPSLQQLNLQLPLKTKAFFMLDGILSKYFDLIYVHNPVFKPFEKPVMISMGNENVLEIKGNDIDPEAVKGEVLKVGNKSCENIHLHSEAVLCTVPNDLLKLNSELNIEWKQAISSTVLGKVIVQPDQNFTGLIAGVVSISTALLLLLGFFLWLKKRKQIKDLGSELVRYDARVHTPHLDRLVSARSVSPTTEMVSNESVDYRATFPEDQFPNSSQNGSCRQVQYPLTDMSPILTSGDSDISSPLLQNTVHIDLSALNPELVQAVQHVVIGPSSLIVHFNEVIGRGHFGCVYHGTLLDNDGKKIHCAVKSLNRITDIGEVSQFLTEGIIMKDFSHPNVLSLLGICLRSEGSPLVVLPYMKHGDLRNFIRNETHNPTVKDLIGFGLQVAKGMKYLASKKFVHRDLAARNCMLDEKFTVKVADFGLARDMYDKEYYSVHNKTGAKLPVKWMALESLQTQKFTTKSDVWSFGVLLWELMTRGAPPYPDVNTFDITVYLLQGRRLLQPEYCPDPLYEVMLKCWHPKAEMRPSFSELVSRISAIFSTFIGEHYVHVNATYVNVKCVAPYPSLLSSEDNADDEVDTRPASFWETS
In short: as §1

GSK3A = target: T9, GSK3A (Homo sapiens, UniProt P49840)
T9 construct: purchased DiscoverX (Ambit Biosciences) KINOMEscan
T9 sequence (P49840 whole entry): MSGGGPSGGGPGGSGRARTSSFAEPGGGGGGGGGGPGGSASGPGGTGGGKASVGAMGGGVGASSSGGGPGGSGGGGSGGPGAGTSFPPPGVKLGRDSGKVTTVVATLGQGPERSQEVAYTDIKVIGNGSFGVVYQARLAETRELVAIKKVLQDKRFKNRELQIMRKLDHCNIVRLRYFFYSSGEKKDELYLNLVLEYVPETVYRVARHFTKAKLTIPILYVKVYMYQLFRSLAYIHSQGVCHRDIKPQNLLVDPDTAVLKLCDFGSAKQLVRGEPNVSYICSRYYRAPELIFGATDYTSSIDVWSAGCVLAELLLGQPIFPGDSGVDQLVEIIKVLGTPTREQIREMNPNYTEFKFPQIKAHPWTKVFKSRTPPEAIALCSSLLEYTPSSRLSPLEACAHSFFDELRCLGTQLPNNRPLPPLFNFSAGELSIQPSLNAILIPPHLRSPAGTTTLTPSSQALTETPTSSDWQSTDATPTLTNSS
In short: as §1

MTOR = target: T10, MTOR (Homo sapiens, UniProt P42345); conditions: read-out: %Inhibition by 10 μM SPA70
T10 construct: purchased DiscoverX (Ambit Biosciences) KINOMEscan
In short: as §1

PHKG2 = target: T11, PHKG2 (Homo sapiens, UniProt P15735); conditions: read-out: %Inhibition by 10 μM SPA70
T11 construct: purchased DiscoverX (Ambit Biosciences) KINOMEscan
In short: as §1

STK35 = target: T12, STK35 (Homo sapiens, UniProt Q8TDR2); conditions: read-out: %Inhibition by 10 μM SPA70
T12 construct: purchased DiscoverX (Ambit Biosciences) KINOMEscan
In short: as §1

NEK6 = target: T13, NEK6 (Homo sapiens, UniProt Q9HC98); conditions: read-out: %Inhibition by 10 μM SPA70
T13 construct: purchased DiscoverX (Ambit Biosciences) KINOMEscan
In short: as §1

DRAK1 = target: T14, DRAK1 (Homo sapiens, UniProt Q9UEE5); conditions: read-out: %Inhibition by 10 μM SPA70
T14 construct: purchased DiscoverX (Ambit Biosciences) KINOMEscan
In short: as §1

DDR2 = target: T15, DDR2 (Homo sapiens, UniProt Q16832); conditions: read-out: %Inhibition by 10 μM SPA70
T15 construct: purchased DiscoverX (Ambit Biosciences) KINOMEscan
In short: as §1

SRPK3 = target: T16, SRPK3 (Homo sapiens, UniProt Q9UPE1); conditions: read-out: %Inhibition by 10 μM SPA70
T16 construct: purchased DiscoverX (Ambit Biosciences) KINOMEscan
In short: as §1

PAK1 = target: T17, PAK1 (Homo sapiens, UniProt Q13153); conditions: read-out: %Inhibition by 10 μM SPA70
T17 construct: purchased DiscoverX (Ambit Biosciences) KINOMEscan
In short: as §1

TNK1 = target: T18, TNK1 (Homo sapiens, UniProt Q13470); conditions: read-out: %Inhibition by 10 μM SPA70
T18 construct: purchased DiscoverX (Ambit Biosciences) KINOMEscan
In short: as §1

CDC2L2 = target: T19, CDC2L2 (Homo sapiens, UniProt Q9UQ88); conditions: read-out: %Inhibition by 10 μM SPA70
T19 construct: purchased DiscoverX (Ambit Biosciences) KINOMEscan
T19 sequence (Q9UQ88 whole entry): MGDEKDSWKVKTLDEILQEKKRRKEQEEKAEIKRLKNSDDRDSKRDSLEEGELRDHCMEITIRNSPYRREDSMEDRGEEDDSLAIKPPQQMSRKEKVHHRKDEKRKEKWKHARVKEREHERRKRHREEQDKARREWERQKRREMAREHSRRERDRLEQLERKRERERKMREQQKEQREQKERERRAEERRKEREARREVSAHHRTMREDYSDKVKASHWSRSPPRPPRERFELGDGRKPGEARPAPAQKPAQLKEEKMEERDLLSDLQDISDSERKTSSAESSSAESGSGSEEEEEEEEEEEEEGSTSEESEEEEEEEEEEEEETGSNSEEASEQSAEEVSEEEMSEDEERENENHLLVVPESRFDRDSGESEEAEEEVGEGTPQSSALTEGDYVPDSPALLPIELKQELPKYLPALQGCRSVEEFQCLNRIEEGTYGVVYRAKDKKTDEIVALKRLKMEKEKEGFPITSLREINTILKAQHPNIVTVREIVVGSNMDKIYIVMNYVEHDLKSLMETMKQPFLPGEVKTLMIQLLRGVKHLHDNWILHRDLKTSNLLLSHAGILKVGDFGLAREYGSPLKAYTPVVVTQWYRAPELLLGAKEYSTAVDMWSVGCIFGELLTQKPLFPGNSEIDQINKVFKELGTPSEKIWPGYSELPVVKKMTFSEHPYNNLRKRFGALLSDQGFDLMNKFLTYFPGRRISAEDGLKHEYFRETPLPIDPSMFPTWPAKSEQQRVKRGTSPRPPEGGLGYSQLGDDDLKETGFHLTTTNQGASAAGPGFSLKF
In short: as §1

RIPK1 = target: T20, RIPK1 (Homo sapiens, UniProt Q13546); conditions: read-out: %Inhibition by 10 μM SPA70
T20 construct: purchased DiscoverX (Ambit Biosciences) KINOMEscan
In short: as §1

QSK = target: T21, QSK (Homo sapiens, UniProt Q9Y2K2)
T21 construct: purchased DiscoverX (Ambit Biosciences) KINOMEscan
In short: as §1

NEK3 = target: T22, NEK3 (Homo sapiens, UniProt P51956); conditions: read-out: %Inhibition by 10 μM SPA70
T22 construct: purchased DiscoverX (Ambit Biosciences) KINOMEscan
In short: as §1

KIT = target: T23, KIT (Homo sapiens, UniProt P10721)
T23 construct: purchased Ambit Biosciences, now part of DiscoveryX
T23 sequence (P10721 26-976): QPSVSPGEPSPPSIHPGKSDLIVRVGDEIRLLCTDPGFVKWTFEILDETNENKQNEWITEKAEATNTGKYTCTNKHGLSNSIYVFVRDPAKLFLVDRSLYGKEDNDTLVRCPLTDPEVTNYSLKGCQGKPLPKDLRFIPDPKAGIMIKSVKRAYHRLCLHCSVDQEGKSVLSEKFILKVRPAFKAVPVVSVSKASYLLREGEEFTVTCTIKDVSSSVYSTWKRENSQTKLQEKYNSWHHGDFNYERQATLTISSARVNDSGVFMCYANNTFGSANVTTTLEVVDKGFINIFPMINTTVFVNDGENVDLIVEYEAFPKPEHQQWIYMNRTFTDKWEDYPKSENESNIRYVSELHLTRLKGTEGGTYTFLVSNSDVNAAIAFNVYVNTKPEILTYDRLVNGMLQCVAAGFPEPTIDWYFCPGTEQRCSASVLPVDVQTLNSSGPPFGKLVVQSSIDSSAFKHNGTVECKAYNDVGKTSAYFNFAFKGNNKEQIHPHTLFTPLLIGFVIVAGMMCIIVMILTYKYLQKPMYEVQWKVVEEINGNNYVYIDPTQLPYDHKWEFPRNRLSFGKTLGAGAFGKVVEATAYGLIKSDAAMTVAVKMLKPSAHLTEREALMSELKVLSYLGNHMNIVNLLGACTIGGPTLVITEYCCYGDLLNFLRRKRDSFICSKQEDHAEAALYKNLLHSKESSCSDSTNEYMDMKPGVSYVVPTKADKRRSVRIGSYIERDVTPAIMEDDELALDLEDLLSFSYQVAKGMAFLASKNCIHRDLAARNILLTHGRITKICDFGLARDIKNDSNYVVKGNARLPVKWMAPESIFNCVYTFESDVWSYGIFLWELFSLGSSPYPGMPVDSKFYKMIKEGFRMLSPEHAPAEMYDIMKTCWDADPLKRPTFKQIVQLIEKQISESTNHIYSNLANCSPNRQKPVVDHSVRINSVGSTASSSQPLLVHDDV
In short: as §1

TAOK1 = target: T24, TAOK1 (Homo sapiens, UniProt Q7L7X3); conditions: read-out: %Inhibition by 10 μM SPA70
T24 construct: purchased DiscoverX (Ambit Biosciences) KINOMEscan
In short: as §1

TAOK2 = target: T25, TAOK2 (Homo sapiens, UniProt Q9UL54); conditions: read-out: %Inhibition by 10 μM SPA70
T25 construct: purchased DiscoverX (Ambit Biosciences) KINOMEscan
In short: as §1

ASK2 = target: T26, ASK2 (Homo sapiens, UniProt O95382); conditions: read-out: %Inhibition by 10 μM SPA70
T26 construct: purchased DiscoverX (Ambit Biosciences) KINOMEscan
In short: as §1

PKAC-beta = target: T27, PKAC-beta (Homo sapiens, UniProt P22694)
T27 construct: purchased DiscoverX (Ambit Biosciences) KINOMEscan
In short: as §1

RIOK1 = target: T28, RIOK1 (Homo sapiens, UniProt Q9BRS2); conditions: read-out: %Inhibition by 10 μM SPA70
T28 construct: purchased DiscoverX (Ambit Biosciences) KINOMEscan
In short: as §1

GRK7 = target: T29, GRK7 (Homo sapiens, UniProt Q8WTQ7); conditions: read-out: %Inhibition by 10 μM SPA70
T29 construct: purchased DiscoverX (Ambit Biosciences) KINOMEscan
In short: as §1

MAP3K3 = target: T30, MAP3K3 (Homo sapiens, UniProt Q99759); conditions: read-out: %Inhibition by 10 μM SPA70
T30 construct: purchased DiscoverX (Ambit Biosciences) KINOMEscan
In short: as §1

TIE2 = target: T31, TIE2 (Homo sapiens, UniProt Q02763); conditions: read-out: %Inhibition by 10 μM SPA70
T31 construct: purchased DiscoverX (Ambit Biosciences) KINOMEscan
In short: as §1

ERK8 = target: T32, ERK8 (Homo sapiens, UniProt Q8TD08); conditions: read-out: %Inhibition by 10 μM SPA70
T32 construct: purchased DiscoverX (Ambit Biosciences) KINOMEscan
In short: as §1

EPHA2 = target: T33, EPHA2 (Homo sapiens, UniProt P29317); conditions: read-out: %Inhibition by 10 μM SPA70
T33 construct: purchased DiscoverX (Ambit Biosciences) KINOMEscan
T33 sequence (P29317 24-976): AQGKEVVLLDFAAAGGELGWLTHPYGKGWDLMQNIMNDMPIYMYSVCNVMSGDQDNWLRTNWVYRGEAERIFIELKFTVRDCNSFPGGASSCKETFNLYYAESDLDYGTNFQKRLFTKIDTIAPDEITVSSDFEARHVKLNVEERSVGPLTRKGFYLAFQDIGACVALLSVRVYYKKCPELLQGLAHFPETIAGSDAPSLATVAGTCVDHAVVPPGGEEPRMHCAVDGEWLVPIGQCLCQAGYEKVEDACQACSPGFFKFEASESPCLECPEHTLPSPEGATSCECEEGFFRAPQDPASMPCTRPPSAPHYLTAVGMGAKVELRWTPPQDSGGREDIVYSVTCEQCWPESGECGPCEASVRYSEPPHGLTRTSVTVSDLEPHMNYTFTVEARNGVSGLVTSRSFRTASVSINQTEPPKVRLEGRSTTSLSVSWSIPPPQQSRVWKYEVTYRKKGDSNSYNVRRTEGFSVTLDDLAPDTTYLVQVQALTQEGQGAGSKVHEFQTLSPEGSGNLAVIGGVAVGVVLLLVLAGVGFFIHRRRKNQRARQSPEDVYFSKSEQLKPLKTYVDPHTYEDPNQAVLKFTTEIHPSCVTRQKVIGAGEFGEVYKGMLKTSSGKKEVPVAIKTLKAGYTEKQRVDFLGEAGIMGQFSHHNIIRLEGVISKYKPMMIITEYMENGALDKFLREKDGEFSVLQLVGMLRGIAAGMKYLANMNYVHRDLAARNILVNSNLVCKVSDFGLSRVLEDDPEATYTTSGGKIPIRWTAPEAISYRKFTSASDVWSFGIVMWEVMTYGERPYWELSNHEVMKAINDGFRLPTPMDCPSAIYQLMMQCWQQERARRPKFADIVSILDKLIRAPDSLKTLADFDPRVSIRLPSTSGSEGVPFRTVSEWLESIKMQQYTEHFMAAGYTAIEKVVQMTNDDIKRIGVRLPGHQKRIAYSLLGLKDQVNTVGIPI
In short: as §1

MLK3 = target: T34, MLK3 (Homo sapiens, UniProt Q16584)
T34 construct: purchased DiscoverX (Ambit Biosciences) KINOMEscan
In short: as §1

SIK2 = target: T35, SIK2 (Homo sapiens, UniProt Q9H0K1); conditions: read-out: %Inhibition by 10 μM SPA70
T35 construct: purchased DiscoverX (Ambit Biosciences) KINOMEscan
In short: as §1

PFTK1 = target: T36, PFTK1 (Homo sapiens, UniProt O94921)
T36 construct: purchased DiscoverX (Ambit Biosciences) KINOMEscan
In short: as §1

CDKL2 = target: T37, CDKL2 (Homo sapiens, UniProt Q92772); conditions: read-out: %Inhibition by 10 μM SPA70
T37 construct: purchased DiscoverX (Ambit Biosciences) KINOMEscan
T37 sequence (Q92772 whole entry): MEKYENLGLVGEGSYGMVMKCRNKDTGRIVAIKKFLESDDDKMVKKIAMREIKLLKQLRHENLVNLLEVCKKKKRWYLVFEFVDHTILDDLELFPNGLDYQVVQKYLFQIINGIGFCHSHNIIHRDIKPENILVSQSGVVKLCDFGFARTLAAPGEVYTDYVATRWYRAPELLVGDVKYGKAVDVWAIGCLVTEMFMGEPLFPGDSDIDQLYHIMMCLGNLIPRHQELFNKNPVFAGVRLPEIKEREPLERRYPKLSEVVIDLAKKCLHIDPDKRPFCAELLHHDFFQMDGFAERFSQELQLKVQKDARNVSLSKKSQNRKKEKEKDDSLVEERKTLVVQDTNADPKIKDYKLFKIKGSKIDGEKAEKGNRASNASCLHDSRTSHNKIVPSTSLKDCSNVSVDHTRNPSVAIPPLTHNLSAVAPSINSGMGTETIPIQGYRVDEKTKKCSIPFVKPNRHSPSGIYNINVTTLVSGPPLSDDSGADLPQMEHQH
In short: as §1

PIK3CD = target: T38, PIK3CD (Homo sapiens, UniProt O00329); conditions: read-out: %Inhibition by 10 μM SPA70
T38 construct: purchased DiscoverX (Ambit Biosciences) KINOMEscan
In short: as §1

CSNK1A1L = target: T39, CSNK1A1L (Homo sapiens, UniProt Q8N752); conditions: read-out: %Inhibition by 10 μM SPA70
T39 construct: purchased DiscoverX (Ambit Biosciences) KINOMEscan
In short: as §1

CAMKK1 = target: T40, CAMKK1 (Homo sapiens, UniProt Q8N5S9); conditions: read-out: %Inhibition by 10 μM SPA70
T40 construct: purchased DiscoverX (Ambit Biosciences) KINOMEscan
In short: as §1

PRKCE = target: T41, PRKCE (Homo sapiens, UniProt Q02156); conditions: read-out: %Inhibition by 10 μM SPA70
T41 construct: purchased DiscoverX (Ambit Biosciences) KINOMEscan
In short: as §1

[2] = read-out: %Inhibition by 10 μM SPA70

COc1ccc(OC)c(-n2nnc(S(=O)(=O)c3ccc(C(C)(C)C)cc3)c2C)c1 [SPA70]
inhibition at 10 µM (EPHA4): 0%
inhibition at 10 µM (ROCK1): 3%
inhibition at 10 µM (SgK110): 0%
inhibition at 10 µM (PIP5K1A): 0%
inhibition at 10 µM (ADCK3): 0%
%Inhibition by 10 μM SPA70 [1]: 33%
inhibition at 10 µM (TBK1): 0%
%Inhibition by 10 μM SPA70 (MET): 0%
%Inhibition by 10 μM SPA70 (GSK3A): not inhibited
inhibition at 10 µM (GSK3A; [2]): 0%
inhibition at 10 µM (MTOR): 0%
inhibition at 10 µM (PHKG2): 0%
inhibition at 10 µM (STK35): 0%
inhibition at 10 µM (NEK6): 0%
inhibition at 10 µM (DRAK1): 7%
inhibition at 10 µM (DDR2): 0%
inhibition at 10 µM (SRPK3): 0%
inhibition at 10 µM (PAK1): 0%
inhibition at 10 µM (TNK1): 0%
inhibition at 10 µM (CDC2L2): 9%
inhibition at 10 µM (RIPK1): 0%
%Inhibition by 10 μM SPA70 (QSK): 43%
inhibition at 10 µM (NEK3): 0%
Kd (KIT; 11-point 3-fold serial dilutions starting from 30 µM): 2500 nM
inhibition at 10 µM (KIT; [2]): 83%
inhibition at 10 µM (TAOK1): 15%
inhibition at 10 µM (TAOK2): 21%
inhibition at 10 µM (ASK2): 0%
%Inhibition by 10 μM SPA70 (PKAC-beta): not inhibited
inhibition at 10 µM (PKAC-beta; [2]): 0%
inhibition at 10 µM (RIOK1): 47%
inhibition at 10 µM (GRK7): 0%
inhibition at 10 µM (MAP3K3): 16%
inhibition at 10 µM (TIE2): 0%
inhibition at 10 µM (ERK8): 0%
inhibition at 10 µM (EPHA2): 0%
%Inhibition by 10 μM SPA70 (MLK3): 18%
inhibition at 10 µM (SIK2): 0%
%Inhibition by 10 μM SPA70 (PFTK1): 0%
inhibition at 10 µM (CDKL2): 22%
inhibition at 10 µM (PIK3CD): 0%
inhibition at 10 µM (CSNK1A1L): 0%
inhibition at 10 µM (CAMKK1): 1%
inhibition at 10 µM (PRKCE): 0%
